Reference: patent US8414885B2, “Methods and compositions for treating cancer” (priority 2009, dated 2013)
Peptide text beside a SMILES is read from it. * marks the point of attachment. Cbz = O=C(OCc1ccccc1)*; CH2F = FC*

Legend:
calpain = experiment: Immunoblotting for calpain activation in infected melanoma cells; format: cell-based, human; conditions: delta-PK infected cultures; PD150606 100 μM; z-VAD-fmk 100 μM (Sigma-Aldrich) or 20 μM (Promega)
Text: (§1) FIG. 6. Calpain and caspase-7 and caspace-3 are activated in delta-PK infected melanoma cells. […] Data were quantified by densitometry and expressed as the ratio of the p76/p80 and p28 densitometric units +/−SD, respectively. Representatives of three replicate experiments are shown (***p<0.001 vs. Mock). B. The immunoblots in FIG. 6A were sequentially stripped and re-probed with antibodies to activated caspase-7, activated caspase-3, and actin. Data were quantified by densitometry and results are expressed as densitometric units +/−SD (**p<0.01, ***p<0.001 vs. Mock). C. […]
(§2) Cultured cells were lysed with radioimmunoprecipitation buffer [RIPA; 20 mM Tris-HCl (pH 7.4), […], 1% Nonidet P-40, 0.1% sodium dodecyl sulfate (SDS), 0.5% sodium deoxycholate] supplemented with protease and phosphatase inhibitor cocktails (Sigma-Aldrich), and sonicated twice for 30 seconds at 25% output power with a sonicator ultrasonic processor (Misonix, Inc., Farmingdale, N.Y.). […] Protein concentration was determined by the bicinchoninic assay (Pierce, Rockford, Ill.), and 100 μg protein samples were resolved by SDS-polyacrylamide gel elecrophoresis (SDS-PAGE) and transferred to polyvinylidene fluoride membranes followed by immunoblotting. […] Quantitation was by densitometric scanning with the Bio-Rad GS-700 imaging densitometer (Bio-Rad, Hercules, Calif.). […]

caspase-7 = target: T1, caspase-7 (Homo sapiens, UniProt P55210); experiment: Immunoblotting for caspase-7 activation in infected melanoma cells; format: cell-based; conditions: delta-PK infected cultures, 24 hrs p.i.; PD150606 100 μM; z-VAD-fmk 100 μM (Sigma-Aldrich) or 20 μM (Promega)
T1 construct: endogenous in cells; host or cells: A2058 human melanoma cells infected with delta-PK
T1 sequence (P55210 24-198 limits assumed): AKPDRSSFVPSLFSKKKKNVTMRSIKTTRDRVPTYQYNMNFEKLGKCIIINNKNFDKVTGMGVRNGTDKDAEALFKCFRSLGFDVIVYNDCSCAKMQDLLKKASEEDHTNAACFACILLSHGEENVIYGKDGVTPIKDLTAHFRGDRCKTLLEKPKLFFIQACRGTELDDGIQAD
T1 sequence (P55210 207-303 limits assumed): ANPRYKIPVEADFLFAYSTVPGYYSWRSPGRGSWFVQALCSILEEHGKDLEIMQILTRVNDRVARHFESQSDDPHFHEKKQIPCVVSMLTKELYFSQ
Text: as §1, §2

Row | SMILES | effect of inhibitor on delta-PK induced calpain activation (p76/p80 ratio, p28) (calpain) | effect of inhibitor on delta-PK induced caspase-7 activation / cleavage products (caspase-7)
1 | O=C(O)/C(S)=C/c1ccc(I)cc1 [PD150606] | inhibited | increased
2 | COC(=O)C[C@H](NC(=O)[C@H](C)NC(=O)[C@@H](NC(=O)OCc1ccccc1)C(C)C)C(=O)CF [z-VAD-fmk, benzyloxcarbonyl-Val-Ala-Asp-fluormethyl ketone] (Cbz-Val-Ala-Asp(OMe)-CH2F) | did not affect calpain activation | inhibited
